# Experimental data published in patent US6737383B1, “Herbicidal oxadiazolidines” (priority 1999, dated 2004).
# Key:
# surinam grass = experiment: Test B pre/postemergence surinam grass; assay type: in vivo, Brachiaria decumbens
# How it was run: (§1)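 Herbicidal effect was estimated by eye on a ten-point control scale after plants spent twelve to sixteen days in a greenhouse following soil or foliar treatment. Foliar sprays targeted plants at one to four leaves; all doses were formulated in a non-phytotoxic solvent with surfactant.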
# blackgrass [1] = experiment: Test B pre/postemergence blackgrass; assay type: in vivo, Alopecurus myosuroides
# How it was run: as §1
# green foxtail = experiment: Test E green foxtail; assay type: in vivo, Setaria viridis; settings: Preemergence
# wild oat = experiment: Test E wild oat; assay type: in vivo, Avena fatua; settings: Preemergence
# bedstraw = experiment: Test B pre/postemergence bedstraw; assay type: in vivo, Galium aparine
# How it was run: as §1
# blackgrass [2] = experiment: Test E blackgrass; assay type: in vivo, Alopecurus myosuroides; settings: Preemergence
# Italian ryegrass = experiment: Test E Italian ryegrass; assay type: in vivo, Lolium multiflorum; settings: Preemergence
# winter wheat [3] = experiment: Test E winter wheat; assay type: in vivo, Triticum aestivum; settings: Postemergence; for Plant response rating, Wheat (winter): 0 to 100 scale
# How it was run: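 Greenhouse test: compounds in non-phytotoxic solvent with surfactant; for postemergence, sprayed on plants at 1- to 4-leaf stage grown in 60:40 sandy loam/potting mix. Injury rated visually against untreated controls after about 21 to 28 days.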
# smallflower flatsedge = experiment: Test B flood test smallflower flatsedge; assay type: in vivo, Cyperus difformis
# How it was run: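 Read-out is a visual response score from 0 (no effect) to 10 (complete control), assigned by comparison with untreated controls. Treatment was applied at the 2-leaf stage, and plants stayed in the greenhouse for twelve to sixteen days before scoring.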
# winter wheat [4] = experiment: Test E winter wheat; assay type: in vivo, Triticum aestivum; settings: Preemergence
# winter barley = experiment: Test E winter barley; assay type: in vivo, Hordeum vulgare; settings: Preemergence
# [5] = Preemergence, Rate 31 g/ha, visual rating, scale 0 to 10 (0 no effect, 10 complete control)
# [6] = Preemergence, Rate 62 g/ha, scale of 0 to 10 where 0 is no effect and 10 is complete control
# [7] = Rate 16 g/ha, Postemergence, scale 0 to 10, 0 no effect, 10 complete control
# [8] = Rate 16 g/ha, Preemergence, scale 0 to 10, 0 no effect, 10 complete control
# [9] = Rate 31 g/ha, Postemergence, scale 0 to 10
# [10] = Rate 62 g/ha, Postemergence, scale 0 to 10 (0 no effect, 10 complete control)
# [11] = Rate 125 g/ha, Postemergence, scale of 0 to 10 where 0 is no effect and 10 is complete control
# [12] = Rate 125 g/ha, Preemergence, scale of 0 to 10 where 0 is no effect and 10 is complete control
# [13] = Rate 31 g/ha, 0 to 100 scale, 0 no effect, 100 complete control
# [14] = Rate 62 g/ha, 0 to 100 scale, 0 no effect, 100 complete control
# [15] = Rate 125 g/ha, 0 to 100 scale (0 no effect, 100 complete control)
# [16] = Rate 125 g/ha, 0 is no effect, 100 is complete control
# [17] = Rate 125 g/ha, Pre-emergence, flood test species, scale 0 to 10 where 0 is no effect and 10 is complete control
# [18] = Postemergence, Rate 125 g/ha, scale 0 to 10, 0 is no effect, 10 is complete control
# [19] = Postemergence, Rate 250 g/ha, scale 0 to 10, 0 is no effect, 10 is complete control
# [20] = Preemergence, Rate 62 g/ha, scale 0 to 10 (0 no effect, 10 complete control)
# [21] = Preemergence, Rate 250 g/ha, scale of 0 to 10 where 0 is no effect and 10 is complete control
# [22] = Preemergence, Rate 500 g/ha, scale of 0 to 10 where 0 is no effect and 10 is complete control
# [23] = Rate 62 g/ha, Postemergence, scale of 0 to 10 where 0 is no effect and 10 is complete control
# [24] = Rate 500 g/ha, Postemergence, scale 0 to 10, 0 no effect, 10 complete control
structure (smiles),measurement,setting,value
CC(C)N(C(=O)n1oc(=O)n(CCCF)c1=O)c1ccc(F)cc1 [Compound 287],B. signalgrass plant response rating,surinam grass; [5],3
same,B. signalgrass plant response rating,surinam grass; [6],6
same,B. signalgrass plant response rating,surinam grass; [7],0
same,B. signalgrass plant response rating,surinam grass; [8],0
same,B. signalgrass plant response rating,surinam grass; [9],0
same,B. signalgrass plant response rating,surinam grass; [10],0
same,B. signalgrass plant response rating,surinam grass; [11],2
same,B. signalgrass plant response rating,surinam grass; [12],10
same,Blackgrass plant response rating,blackgrass [1]; [5],7
same,Blackgrass plant response rating,blackgrass [1]; [6],10
same,Blackgrass plant response rating,blackgrass [1]; [7],0
same,Blackgrass plant response rating,blackgrass [1]; [8],0
same,Blackgrass plant response rating,blackgrass [1]; [9],8
same,Blackgrass plant response rating,blackgrass [1]; [10],8
same,Blackgrass plant response rating,blackgrass [1]; [11],9
same,Blackgrass plant response rating,blackgrass [1]; [12],10
same,"Plant response rating, Green foxtail",green foxtail; [13],30
same,"Plant response rating, Green foxtail",green foxtail; [14],60
same,"Plant response rating, Green foxtail",green foxtail; [15],60
same,Green foxtail plant response rating (0 to 100 scale),green foxtail; Rate 250 g/ha,90
same,"Plant response rating, Wild oat",wild oat; [13],0
same,"Plant response rating, Wild oat",wild oat; [14],30
same,"Plant response rating, Wild oat",wild oat; [15],70
same,Wild oat plant response rating (0 to 100 scale),wild oat; Rate 250 g/ha,60
same,Bedstraw plant response rating,bedstraw; [5],4
same,Bedstraw plant response rating,bedstraw; [6],9
same,Bedstraw plant response rating,bedstraw; [7],0
same,Bedstraw plant response rating,bedstraw; [8],0
same,Bedstraw plant response rating,bedstraw; [9],0
same,Bedstraw plant response rating,bedstraw; [10],4
same,Bedstraw plant response rating,bedstraw; [11],8
same,Bedstraw plant response rating,bedstraw; [12],10
same,"Plant response rating, Blackgrass",blackgrass [2]; [13],30
same,"Plant response rating, Blackgrass",blackgrass [2]; [14],30
same,"Plant response rating, Blackgrass",blackgrass [2]; [15],50
same,Blackgrass plant response rating (0 to 100 scale),blackgrass [2]; Rate 250 g/ha,60
same,"Plant response rating, I. Ryegrass",Italian ryegrass; [13],20
same,"Plant response rating, I. Ryegrass",Italian ryegrass; [14],50
same,"Plant response rating, I. Ryegrass",Italian ryegrass; [15],55
same,I. Ryegrass plant response rating (0 to 100 scale),Italian ryegrass; Rate 250 g/ha,60
same,"Plant response rating, Wheat (winter)","winter wheat [3]; Rate 31 g/ha, 0 no effect, 100 complete control",30
same,"Plant response rating, Wheat (winter)",winter wheat [3]; Rate 62 g/ha,30
same,"Plant response rating, Wheat (winter)",winter wheat [3]; [16],40
same,Wheat (winter) plant response rating,"winter wheat [3]; Rate 250 g/ha, 0 to 100 scale where 0 is no effect and 100 is complete control",50
same,S. Flatsedge plant response rating,"smallflower flatsedge; Rate 16 g/ha, head printed Pre-emergence (flood test species), scale 0 to 10, 0 no effect, 10 complete control",0
same,S. Flatsedge plant response rating,"smallflower flatsedge; Rate 31 g/ha, Pre-emergence section (flood test species), scale 0 to 10",0
same,S. Flatsedge plant response rating,"smallflower flatsedge; Rate 62 g/ha, headed Pre-emergence (flood test species), scale 0 to 10 (0 no effect, 10 complete control)",0
same,S. Flatsedge plant response rating,smallflower flatsedge; [17],0
same,"Plant response rating, Wheat (winter)",winter wheat [4]; [13],40
same,"Plant response rating, Wheat (winter)",winter wheat [4]; [14],30
same,"Plant response rating, Wheat (winter)",winter wheat [4]; [15],45
same,Wheat (winter) plant response rating (0 to 100 scale),winter wheat [4]; Rate 250 g/ha,50
same,"Plant response rating, Barley (winter)",winter barley; [13],30
same,"Plant response rating, Barley (winter)",winter barley; [14],20
same,"Plant response rating, Barley (winter)",winter barley; [15],30
same,Barley (winter) plant response rating (0 to 100 scale),winter barley; Rate 250 g/ha,35
CC(C)N(C(=O)n1oc(=O)n(C(C)CCl)c1=O)c1ccc(F)cc1 (stereo not shown) [Compound 367],"Plant response rating, B. signalgrass",surinam grass; [18],0
same,"Plant response rating, B. signalgrass",surinam grass; [19],0
same,"Plant response rating, B. signalgrass",surinam grass; [20],0
same,"B. signalgrass plant response rating (0 to 10 scale, 0 is no effect, 10 is complete control)","surinam grass; Preemergence, Rate 125 g/ha",0
same,B. signalgrass plant response rating,surinam grass; [21],4
same,B. signalgrass plant response rating,surinam grass; [22],5
same,B. signalgrass plant response rating,surinam grass; [23],0
same,"Plant response rating, B. signalgrass",surinam grass; [24],4
same,"Plant response rating, Blackgrass",blackgrass [1]; [18],0
same,"Plant response rating, Blackgrass",blackgrass [1]; [19],0
same,"Plant response rating, Blackgrass",blackgrass [1]; [20],2
same,Blackgrass plant response rating (0 to 10 scale),"blackgrass [1]; Preemergence, Rate 125 g/ha",7
same,Blackgrass plant response rating,blackgrass [1]; [21],8
same,Blackgrass plant response rating,blackgrass [1]; [22],10
same,Blackgrass plant response rating,blackgrass [1]; [23],0
same,"Plant response rating, Blackgrass",blackgrass [1]; [24],8
same,"Plant response rating, Green foxtail",green foxtail; [15],70
same,"Plant response rating, Green foxtail","green foxtail; Rate 250 g/ha, 0 to 100 scale",50
same,"Plant response rating, Wild oat",wild oat; [15],55
same,"Plant response rating, Wild oat","wild oat; Rate 250 g/ha, 0 to 100 scale",50
same,"Plant response rating, Bedstraw",bedstraw; [20],10
same,Bedstraw plant response rating (0 to 10 scale),"bedstraw; Preemergence, Rate 125 g/ha",10
same,Bedstraw plant response rating,bedstraw; [21],10
same,Bedstraw plant response rating,bedstraw; [22],10
same,"Plant response rating, Blackgrass",blackgrass [2]; [15],60
same,"Plant response rating, Blackgrass","blackgrass [2]; Rate 250 g/ha, 0 to 100 scale",30
same,"Plant response rating, I. Ryegrass",Italian ryegrass; [15],60
same,"Plant response rating, I. Ryegrass","Italian ryegrass; Rate 250 g/ha, 0 to 100 scale",60
same,"Plant response rating, Wheat (winter)",winter wheat [3]; [16],50
same,"Plant response rating, Wheat (winter)","winter wheat [3]; Rate 250 g/ha, 0 is no effect, 100 is complete control",40
same,"Plant response rating, S. Flatsedge (0 to 10 scale, 0 is no effect, 10 is complete control)","smallflower flatsedge; Rate 62 g/ha, flood test species, Pre-emergence, visual evaluation after twelve to sixteen days",0
same,S. Flatsedge plant response rating,smallflower flatsedge; [17],0
same,S. Flatsedge plant response rating,"smallflower flatsedge; Rate 250 g/ha, Pre-emergence, flood-test species, scale 0 to 10, 0 is no effect, 10 is complete control",0
same,S. Flatsedge plant response rating,"smallflower flatsedge; Rate 500 g/ha, Pre-emergence, flood test species, scale 0 to 10 (0 no effect, 10 complete control)",0
same,"Plant response rating, Wheat (winter)",winter wheat [4]; [15],60
same,"Plant response rating, Wheat (winter)","winter wheat [4]; Rate 250 g/ha, 0 to 100 scale",40
same,"Plant response rating, Barley (winter)",winter barley; [15],20
same,"Plant response rating, Barley (winter)","winter barley; Rate 250 g/ha, 0 to 100 scale, 0 no effect, 100 complete control",30
